Reference: ChEMBL document CHEMBL2385026, “Identification of C-2 hydroxyethyl imidazopyrrolopyridines as potent JAK1 inhibitors with favorable physicochemical properties and high selectivity over JAK2” (J Med Chem, 2013)

Assays:
[1] = Cmax in cynomolgus monkey at 2 mg/kg, po by LC/MS/MS analysis; format: ADME, organism-based, Macaca fascicularis; set-up: dose 2 mg/kg, route oral; conditions: in vivo
[2] = Hepatic clearance in human hepatocytes after 1 to 4 hrs by LC/MS/MS analysis; format: ADME, cell-based, Liver, Hepatocyte
Cytochrome P450 1A2 = biological target: T1, Cytochrome P450 1A2 (Homo sapiens, UniProt P05177); test: Reversible inhibition of CYP1A2 in human liver microsomes using phenacetin as substrate by LC/MS/MS analysis; format: ADME, Microsome
T1 sequence (P05177 whole entry): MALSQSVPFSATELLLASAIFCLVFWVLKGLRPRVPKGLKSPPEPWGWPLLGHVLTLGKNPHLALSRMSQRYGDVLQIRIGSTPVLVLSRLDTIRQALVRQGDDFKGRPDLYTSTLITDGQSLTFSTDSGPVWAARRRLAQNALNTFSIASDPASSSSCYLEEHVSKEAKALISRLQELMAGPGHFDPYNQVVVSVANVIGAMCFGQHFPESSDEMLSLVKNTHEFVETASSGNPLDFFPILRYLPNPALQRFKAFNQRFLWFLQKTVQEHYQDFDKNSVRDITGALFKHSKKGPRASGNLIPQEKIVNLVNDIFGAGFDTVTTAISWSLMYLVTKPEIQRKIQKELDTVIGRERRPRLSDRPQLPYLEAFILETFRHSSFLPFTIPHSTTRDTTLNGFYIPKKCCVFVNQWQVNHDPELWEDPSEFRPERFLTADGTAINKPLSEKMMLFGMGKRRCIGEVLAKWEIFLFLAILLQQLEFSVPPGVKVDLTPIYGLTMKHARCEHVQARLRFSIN

[3] = Metabolic stability in rat hepatocytes assessed as hepatic clearance; format: ADME, cell-based, Liver, Hepatocyte
[4] = Plasma protein binding in dog; format: ADME, cell-free, Canis lupus familiaris; conditions: read-out: PPB (converted)
[5] = biological target: Voltage-gated inwardly rectifying potassium channel KCNH2 (Homo sapiens, UniProt Q12809)
[6] = Plasma protein binding in rat; format: ADME, cell-free; conditions: read-out: PPB (converted)
[7] = Cmax in Sprague-Dawley rat at 2 mg/kg, po by LC/MS/MS analysis; format: ADME, organism-based; set-up: dose 2 mg/kg, route oral; conditions: in vivo
[8] = biological target: T2, Non-receptor tyrosine-protein kinase TYK2 (Homo sapiens, UniProt P29597)
T2 sequence (P29597 whole entry): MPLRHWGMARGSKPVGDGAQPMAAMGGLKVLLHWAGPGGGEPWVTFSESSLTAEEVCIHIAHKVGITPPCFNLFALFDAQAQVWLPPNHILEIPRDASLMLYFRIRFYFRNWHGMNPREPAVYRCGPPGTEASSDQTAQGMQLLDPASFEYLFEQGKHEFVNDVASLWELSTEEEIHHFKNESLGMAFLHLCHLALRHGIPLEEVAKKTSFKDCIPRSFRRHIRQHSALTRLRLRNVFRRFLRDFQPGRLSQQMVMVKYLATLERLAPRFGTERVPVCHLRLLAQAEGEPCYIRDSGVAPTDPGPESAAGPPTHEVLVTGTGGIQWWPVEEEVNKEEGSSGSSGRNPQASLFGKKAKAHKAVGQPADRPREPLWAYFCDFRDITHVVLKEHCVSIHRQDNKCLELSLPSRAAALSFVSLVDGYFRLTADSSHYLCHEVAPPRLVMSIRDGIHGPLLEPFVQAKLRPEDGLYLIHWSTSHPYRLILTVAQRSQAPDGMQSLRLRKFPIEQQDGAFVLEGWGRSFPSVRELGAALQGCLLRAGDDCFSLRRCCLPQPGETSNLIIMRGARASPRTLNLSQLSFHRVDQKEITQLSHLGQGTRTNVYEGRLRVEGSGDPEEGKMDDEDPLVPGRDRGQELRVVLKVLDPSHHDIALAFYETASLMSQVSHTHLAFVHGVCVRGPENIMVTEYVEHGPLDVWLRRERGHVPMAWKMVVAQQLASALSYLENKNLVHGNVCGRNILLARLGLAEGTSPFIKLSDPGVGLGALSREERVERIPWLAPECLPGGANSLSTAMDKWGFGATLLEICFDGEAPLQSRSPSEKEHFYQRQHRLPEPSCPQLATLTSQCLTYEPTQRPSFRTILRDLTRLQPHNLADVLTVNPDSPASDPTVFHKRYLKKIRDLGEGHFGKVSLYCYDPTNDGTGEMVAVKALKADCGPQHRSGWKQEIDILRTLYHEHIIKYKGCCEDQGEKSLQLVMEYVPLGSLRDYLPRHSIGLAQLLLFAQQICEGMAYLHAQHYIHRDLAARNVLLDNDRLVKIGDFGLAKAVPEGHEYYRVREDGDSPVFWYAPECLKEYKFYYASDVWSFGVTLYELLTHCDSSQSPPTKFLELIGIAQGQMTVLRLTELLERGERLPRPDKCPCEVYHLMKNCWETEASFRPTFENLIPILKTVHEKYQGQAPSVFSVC

[9] = Half life in cynomolgus monkey at 0.4 mg/kg, iv by LC/MS/MS analysis; format: ADME, organism-based, Macaca fascicularis; set-up: dose 0.4 mg/kg, route intravenous; conditions: in vivo
[10] = Hepatic clearance in human liver microsomes by LC/MS/MS analysis; format: ADME, Microsome
[11] = biological target: T3, Tyrosine-protein kinase JAK1 (Homo sapiens, UniProt P23458)
T3 sequence (P23458 whole entry): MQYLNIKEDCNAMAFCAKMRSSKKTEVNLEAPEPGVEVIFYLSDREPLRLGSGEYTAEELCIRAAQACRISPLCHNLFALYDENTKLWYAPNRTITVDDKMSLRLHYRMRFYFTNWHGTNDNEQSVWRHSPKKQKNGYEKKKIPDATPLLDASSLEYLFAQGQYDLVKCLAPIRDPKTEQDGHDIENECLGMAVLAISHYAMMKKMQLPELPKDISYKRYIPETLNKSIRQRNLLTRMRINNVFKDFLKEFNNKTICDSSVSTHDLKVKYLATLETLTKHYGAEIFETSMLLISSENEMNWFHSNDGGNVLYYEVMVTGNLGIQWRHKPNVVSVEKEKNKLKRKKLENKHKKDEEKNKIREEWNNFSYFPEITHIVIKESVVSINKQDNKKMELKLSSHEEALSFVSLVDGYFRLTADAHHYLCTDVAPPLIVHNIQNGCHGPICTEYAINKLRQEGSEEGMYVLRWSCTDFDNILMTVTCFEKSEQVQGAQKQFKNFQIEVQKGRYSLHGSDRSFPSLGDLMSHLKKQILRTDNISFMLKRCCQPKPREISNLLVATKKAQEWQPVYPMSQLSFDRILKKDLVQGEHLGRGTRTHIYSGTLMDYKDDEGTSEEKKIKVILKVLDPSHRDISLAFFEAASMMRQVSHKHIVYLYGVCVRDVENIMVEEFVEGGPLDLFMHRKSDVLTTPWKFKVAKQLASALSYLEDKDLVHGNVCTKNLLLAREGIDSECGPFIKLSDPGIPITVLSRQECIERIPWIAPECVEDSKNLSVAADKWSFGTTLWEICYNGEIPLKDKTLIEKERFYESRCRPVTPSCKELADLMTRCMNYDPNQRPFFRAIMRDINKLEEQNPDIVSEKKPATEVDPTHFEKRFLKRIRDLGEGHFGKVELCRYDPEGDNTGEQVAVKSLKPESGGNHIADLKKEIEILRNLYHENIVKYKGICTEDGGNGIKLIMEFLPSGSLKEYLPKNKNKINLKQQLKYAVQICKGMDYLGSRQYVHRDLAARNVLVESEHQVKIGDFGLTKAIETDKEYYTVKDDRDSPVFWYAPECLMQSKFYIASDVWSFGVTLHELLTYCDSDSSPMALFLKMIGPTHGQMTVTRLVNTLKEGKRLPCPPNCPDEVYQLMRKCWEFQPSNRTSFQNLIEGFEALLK

Cytochrome P450 2C9 = Cytochrome P450 2C9 (Homo sapiens, UniProt P11712)
Sequence of Cytochrome P450 2C9 (P11712 whole entry): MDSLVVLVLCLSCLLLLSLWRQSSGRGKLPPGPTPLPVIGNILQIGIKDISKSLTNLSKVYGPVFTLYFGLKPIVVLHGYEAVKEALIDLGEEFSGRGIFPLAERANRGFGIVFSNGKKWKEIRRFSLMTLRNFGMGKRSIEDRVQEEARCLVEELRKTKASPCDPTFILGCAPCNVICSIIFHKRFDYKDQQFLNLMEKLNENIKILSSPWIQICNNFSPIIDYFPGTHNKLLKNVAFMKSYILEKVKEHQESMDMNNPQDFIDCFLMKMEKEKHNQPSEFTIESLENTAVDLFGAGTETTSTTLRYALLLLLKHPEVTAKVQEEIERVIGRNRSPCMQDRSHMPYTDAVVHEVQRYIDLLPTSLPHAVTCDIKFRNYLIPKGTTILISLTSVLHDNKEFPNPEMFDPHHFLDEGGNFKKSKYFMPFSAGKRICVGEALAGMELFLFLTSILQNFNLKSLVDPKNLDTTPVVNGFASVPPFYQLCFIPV

[12] = Thermodynamic solubility in aqueous buffer at pH 7.4; format: physicochemical; conditions: read-out: Therm_solubility
[13] = Half life in Sprague-Dawley rat at 0.4 mg/kg, iv by LC/MS/MS analysis; format: ADME, organism-based; set-up: dose 0.4 mg/kg, route intravenous; conditions: in vivo
[14] = Oral bioavailability in Beagle dog at 2 mg/kg by LC/MS/MS analysis; format: ADME, organism-based, Canis lupus familiaris; conditions: Beagle, in vivo
Cytochrome P450 3A4 [15] = biological target: T4, Cytochrome P450 3A4 (Homo sapiens, UniProt P08684); test: Reversible inhibition of CYP3A4 in human liver microsomes using testosterone as substrate by LC/MS/MS analysis; format: ADME, Microsome
T4 sequence (P08684 whole entry): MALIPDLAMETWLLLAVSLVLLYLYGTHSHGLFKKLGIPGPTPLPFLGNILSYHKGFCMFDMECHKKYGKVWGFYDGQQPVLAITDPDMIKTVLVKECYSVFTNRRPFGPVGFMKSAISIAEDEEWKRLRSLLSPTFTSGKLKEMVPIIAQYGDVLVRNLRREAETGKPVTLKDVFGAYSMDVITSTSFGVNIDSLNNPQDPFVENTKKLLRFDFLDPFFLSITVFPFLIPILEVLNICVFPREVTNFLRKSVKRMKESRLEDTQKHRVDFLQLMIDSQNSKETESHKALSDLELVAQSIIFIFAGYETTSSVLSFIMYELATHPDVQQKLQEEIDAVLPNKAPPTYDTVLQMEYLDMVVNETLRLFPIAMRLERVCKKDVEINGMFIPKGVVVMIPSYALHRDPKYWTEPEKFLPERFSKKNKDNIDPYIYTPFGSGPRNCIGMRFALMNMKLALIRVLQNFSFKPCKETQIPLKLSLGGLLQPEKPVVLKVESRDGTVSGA

[16] = Cmax in Beagle dog at 2 mg/kg, po by LC/MS/MS analysis; format: ADME, organism-based, Canis lupus familiaris; set-up: dose 2 mg/kg, route oral; conditions: in vivo
[17] = biological target: T3, Tyrosine-protein kinase JAK1; remark: listed apart in the source
[18] = biological target: T3, Tyrosine-protein kinase JAK1; remark: listed apart in the source
[19] = Clearance in Sprague-Dawley rat at 0.4 mg/kg, iv by LC/MS/MS analysis; format: ADME, organism-based; set-up: dose 0.4 mg/kg, route intravenous; conditions: in vivo
[20] = Metabolic stability in dog hepatocytes assessed as hepatic clearance; format: ADME, cell-based, Canis lupus familiaris, Liver, Hepatocyte
[21] = AUC in Beagle dog at 2 mg/kg, po by LC/MS/MS analysis; format: ADME, organism-based, Canis lupus familiaris; set-up: dose 2 mg/kg, route oral; conditions: plasma
[22] = AUC in Sprague-Dawley rat at 2 mg/kg, po by LC/MS/MS analysis; format: ADME, organism-based; set-up: dose 2 mg/kg, route oral; conditions: plasma
[23] = biological target: T2, Non-receptor tyrosine-protein kinase TYK2; remark: listed apart in the source
[24] = Plasma protein binding in cynomolgus monkey; format: ADME, cell-free, Macaca fascicularis; conditions: read-out: PPB (converted)
[25] = Clearance in cynomolgus monkey at 0.4 mg/kg, iv by LC/MS/MS analysis; format: ADME, organism-based, Macaca fascicularis; set-up: dose 0.4 mg/kg, route intravenous; conditions: in vivo
[26] = Apparent permeability across basolateral to apical side in dog MDCK cells; format: ADME, cell-based, Canis lupus familiaris
Cytochrome P450 3A4 [27] = biological target: T4, Cytochrome P450 3A4; test: Reversible inhibition of CYP3A4 in human liver microsomes using midazolam as substrate by LC/MS/MS analysis; format: ADME, Microsome
[28] = Clearance in Beagle dog at 0.4 mg/kg, iv by LC/MS/MS analysis; format: ADME, organism-based, Canis lupus familiaris; set-up: dose 0.4 mg/kg, route intravenous; conditions: in vivo
[29] = Oral bioavailability in cynomolgus monkey at 2 mg/kg by LC/MS/MS analysis; format: ADME, organism-based, Macaca fascicularis; conditions: in vivo
[30] = Metabolic stability in monkey hepatocytes assessed as hepatic clearance; format: ADME, cell-based, Macaca mulatta, Liver, Hepatocyte; conditions: rhesus monkey
Cytochrome P450 2C19 = Cytochrome P450 2C19 (Homo sapiens, UniProt P33261)
Sequence of Cytochrome P450 2C19 (P33261 whole entry): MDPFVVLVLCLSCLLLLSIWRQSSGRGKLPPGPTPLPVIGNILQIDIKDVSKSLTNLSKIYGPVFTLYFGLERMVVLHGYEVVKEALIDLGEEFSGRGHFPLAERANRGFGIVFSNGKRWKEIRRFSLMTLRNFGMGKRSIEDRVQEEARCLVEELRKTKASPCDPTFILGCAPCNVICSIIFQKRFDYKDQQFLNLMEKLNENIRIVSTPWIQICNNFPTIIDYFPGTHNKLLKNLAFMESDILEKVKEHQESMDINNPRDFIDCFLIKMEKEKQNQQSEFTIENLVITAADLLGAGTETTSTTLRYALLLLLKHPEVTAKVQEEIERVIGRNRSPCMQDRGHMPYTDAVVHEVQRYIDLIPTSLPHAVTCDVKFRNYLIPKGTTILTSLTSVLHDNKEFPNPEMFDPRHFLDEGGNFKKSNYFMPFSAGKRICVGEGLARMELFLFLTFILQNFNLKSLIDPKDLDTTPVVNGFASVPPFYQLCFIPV

[31] = Apparent permeability across apical to basolateral side in dog MDCK cells; format: ADME, cell-based, Canis lupus familiaris
Rattus norvegicus = test: Oral bioavailability in Sprague-Dawley rat at 2 mg/kg by LC/MS/MS analysis; format: ADME, organism-based; conditions: in vivo
[32] = Half life in Beagle dog at 0.4 mg/kg, iv by LC/MS/MS analysis; format: ADME, organism-based, Canis lupus familiaris; set-up: dose 0.4 mg/kg, route intravenous; conditions: in vivo
[33] = AUC in cynomolgus monkey at 2 mg/kg, po by LC/MS/MS analysis; format: ADME, organism-based, Macaca fascicularis; set-up: dose 2 mg/kg, route oral; conditions: plasma
[34] = Thermodynamic solubility in aqueous buffer at pH 2; format: physicochemical; conditions: read-out: Therm_solubility
Cytochrome P450 2D6 = Cytochrome P450 2D6 (Homo sapiens, UniProt P10635)
Sequence of Cytochrome P450 2D6 (P10635 whole entry): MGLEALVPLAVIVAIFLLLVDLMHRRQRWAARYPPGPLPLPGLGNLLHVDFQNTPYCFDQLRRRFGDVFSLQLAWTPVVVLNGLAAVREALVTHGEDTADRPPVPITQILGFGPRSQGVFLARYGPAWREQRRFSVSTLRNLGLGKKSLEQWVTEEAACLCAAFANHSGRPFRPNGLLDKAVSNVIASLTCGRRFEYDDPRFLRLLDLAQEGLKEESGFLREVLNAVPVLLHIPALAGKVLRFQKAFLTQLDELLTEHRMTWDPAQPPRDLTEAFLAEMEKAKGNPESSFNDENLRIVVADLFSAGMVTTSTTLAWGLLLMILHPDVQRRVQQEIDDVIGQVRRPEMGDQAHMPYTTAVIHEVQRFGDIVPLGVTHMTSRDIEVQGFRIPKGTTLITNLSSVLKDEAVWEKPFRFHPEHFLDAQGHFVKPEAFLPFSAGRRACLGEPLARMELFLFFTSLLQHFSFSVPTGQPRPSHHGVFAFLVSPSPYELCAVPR

Structure (SMILES): C[C@@H](O)c1nc2cnc3[nH]ccc3c2n1[C@H]1CCCOC1
- Cmax [1]: 1.8 µM
- CLhep predicted [2]: 1.9 mL/min/kg
- IC50 (Cytochrome P450 1A2): > 10000 nM
- CLhep predicted [3]: 2.3 mL/min/kg
- fraction unbound [4]: 0.39
- IC50 [5]: > 100000 nM
- fraction unbound [6]: 0.61
- Cmax [7]: 5.2 µM
- EC50 [8]: > 5800 nM
- half-life [9]: 1.1 h
- CLhep predicted [10]: 2 mL/min/kg
- Ki [11]: 2.8 nM
- IC50 (Cytochrome P450 2C9): > 10000 nM
- solubility thermodynamic [12]: > 4 mM
- half-life [13]: 1.5 h
- bioavailability [14]: 111%
- IC50 (Cytochrome P450 3A4 [15]): > 10000 nM
- Cmax [16]: 9.8 µM
- EC50 [17]: 180 nM
- EC50 [18]: 110 nM
- clearance [19]: 22 mL/min/kg
- CLhep predicted [20]: 4.9 mL/min/kg
- AUC [21]: 65.7 µM·h
- AUC [22]: 10.7 µM·h
- Ki [23]: 31 nM
- fraction unbound [24]: 0.46
- clearance [25]: 19 mL/min/kg
- Papp B→A [26]: 8.6 ×10⁻⁶ cm/s
- IC50 (Cytochrome P450 3A4 [27]): > 10000 nM
- clearance [28]: 2.1 mL/min/kg
- bioavailability [29]: 70%
- CLhep predicted [30]: 21 mL/min/kg
- IC50 (Cytochrome P450 2C19): > 10000 nM
- Papp A→B [31]: 7.6 ×10⁻⁶ cm/s
- F (Rattus norvegicus): 197%
- half-life [32]: 5.7 h
- AUC [33]: 4.3 µM·h
- solubility thermodynamic [34]: > 4 mM
- IC50 (Cytochrome P450 2D6): > 10000 nM
